Molecular target: T1, glucocerebrosidase (Homo sapiens, UniProt P04062)
T1 sequence (P04062 40-536): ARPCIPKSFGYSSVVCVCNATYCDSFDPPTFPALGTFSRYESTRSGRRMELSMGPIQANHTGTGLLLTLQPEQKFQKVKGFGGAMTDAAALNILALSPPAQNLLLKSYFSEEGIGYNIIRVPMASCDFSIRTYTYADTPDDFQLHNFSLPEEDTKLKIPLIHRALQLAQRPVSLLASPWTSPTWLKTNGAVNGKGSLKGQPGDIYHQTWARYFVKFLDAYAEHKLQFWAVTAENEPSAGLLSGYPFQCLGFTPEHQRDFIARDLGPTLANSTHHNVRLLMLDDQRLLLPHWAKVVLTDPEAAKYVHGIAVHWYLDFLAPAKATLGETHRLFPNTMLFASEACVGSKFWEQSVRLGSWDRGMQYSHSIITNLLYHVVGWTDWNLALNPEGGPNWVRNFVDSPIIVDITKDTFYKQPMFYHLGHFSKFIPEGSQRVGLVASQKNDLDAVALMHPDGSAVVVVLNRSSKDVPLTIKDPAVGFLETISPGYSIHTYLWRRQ
Assay: Glucocerebrosidase activity assay with blue substrate (4MU-Glc)
Assay type: biochemical
Experimental: Example 2—Glucocerebrosidase Activity Assay with Blue Substrate
The compounds in DMSO solution 0.5 μL/well were transferred to a black 96-well plate (the final titration was 24 nM to 50 μM, 12 concentrations, 2× dilution). 33.5 μL enzyme solution (7.5 nM final concentration) was transferred to the wells. After 5 min of incubation at room temperature, the enzyme reaction was initiated by the addition of 33 μL/well blue substrate. Final concentration of the blue substrate (4MU-Glc) was 1.5 mM. The blue substrate reaction was terminated by the addition of 33 μL/well stop solution (1 M NaOH and 1 M glycine mixture, pH 10) after 30 min of incubation at 37° C. The fluorescence was then measured in the Biotek Synergy H1 multi-mode plate reader with Ex=365 nm and Em=440 nm.
Additional compounds were synthesized and tested for glucocerebrosidase modulatory activity as described in Example 1 and Example 2.

[1] = Table 1, 7.5 nM enzyme, 1.5 mM 4MU-Glc, 30 min at 37° C.
[2] = Table 1, 7.5 nM enzyme, 1.5 mM 4MU-Glc, 30 min at 37° C., titration 24 nM to 50 μM
[3] = Table 2, additional compounds, tested as described in Example 2

`Cn1ncc2c(N3CC[C@@H](Oc4ccccc4)C3)nc(-c3cccnc3)nc21` [Compound 100] showed an Emax [1] of 833% and an AC50 [2] of 5.62 µM.

With `CN(CCOc1ccccc1)c1nc(-c2cccnc2)nc2ccoc12` [Compound 67] the Emax [1] was 787% and the AC50 [2] was 10 µM.

For `CN(CCOc1ccccc1)c1cc(-c2ccccc2)nc(-c2cccnc2)n1` [Compound 65], the Emax [1] was 144% and the AC50 [2] was 1 µM.

Molecule `CN(CCOc1ccccc1)c1cc(N2CCOCC2)nc(-c2cccnc2)n1` [Compound 71] has an Emax [1] of 346% and an AC50 [2] of 15.8 µM.

For `CN(CCOc1ccccc1)c1cc(N2CCC(O)CC2)nc(-c2cccnc2)n1` [Compound 170], the AC50 [3] was 28.2 µM and the Emax [3] was 740%.

`O=C(O)CCCCCCCN(CCOc1ccccc1)c1nc(-c2cccnc2)nc2ccccc12` [Compound 19] gave an Emax [1] of 150% and an AC50 [2] of 1.78 µM.

Molecule `CN(CCc1c[nH]c2ccccc12)c1nc(-c2cccnc2)nc2ccccc12` [Compound 30] has an Emax [1] of 250% and an AC50 [2] of 5.01 µM.

With `CN(CCOc1ccccc1)c1nc(-c2cccnc2)nc2scnc12` [Compound 93] the Emax [1] was 270% and the AC50 [2] was 4.47 µM.

Work on `CN(CCOc1ccccc1)c1nc(-c2cccnc2)nc2c1cnn2C` [Compound 78] yielded an Emax [1] of 425% and an AC50 [2] of 1.56 µM.

`CCn1ncc2c(N(C)CCOc3ccc(CNC(=O)CCCCCN)cc3)nc(-c3cccnc3)nc21` [Compound 112] was tested, and the Emax [1] was 530% and the AC50 [2] was 3.55 µM.

`COC(=O)c1cccc(OCCN(C)c2nc(-c3cccnc3)nc3ccccc23)c1` [Compound 77] showed an Emax [1] of 432% and an AC50 [2] of 5.01 µM.

Molecule `CN(CCOc1ccccc1)c1nc(-c2cccnc2)nc2c1oc1ccccc12` [Compound 153] has an AC50 [3] of 1.58 µM and an Emax [3] of 178%.

In the case of `CCn1ncc2c(N(C)CCOc3ccc(CNC(=O)CCCNC(=O)OC(C)(C)C)cc3)nc(-c3cccnc3)nc21` [Compound 146], the AC50 [3] was 1.41 µM and the Emax [3] was 940%.

`CCn1ncc2c(N3CC[C@H](Oc4ccccc4)C3)nc(-c3cncc(Cl)c3)nc21` [Compound 160] was tested, and the AC50 [3] was 28.2 µM and the Emax [3] was 130%.

`CCn1ncc2c(N(C)CCOc3ccc(CNC(=O)CCCCCNC(=O)CCOCCOCCOCCOCCNC(=O)OC(C)(C)C)cc3)nc(-c3cccnc3)nc21` [Compound 184] gave an AC50 [3] of 2.82 µM.

In the case of `CN(CCOc1ccccc1)c1nc(-c2cncc(F)c2)nc2ccccc12` [Compound 35], the Emax [1] was 180% and the AC50 [2] was 0.51 µM.

In the case of `CN(CCOc1ccccc1)c1nc(-c2cccnc2)nc2ccc(F)cc12` [Compound 40], the Emax [1] was 450% and the AC50 [2] was 1.58 µM.

In the case of `CCn1ncc2c(N(C)CCOc3ccccc3)nc(-c3cccnc3)nc21` [Compound 99], the Emax [1] was 208% and the AC50 [2] was 0.71 µM.

`CN(c1nc(-c2cccnc2)nc2c1cnn2C)C1CCCN(c2ccccc2)C1` (stereo not shown) [Compound 88] showed an Emax [1] of 142% and an AC50 [2] of 5.01 µM.

`Cn1ncc2c(NCC3CCc4ccccc4O3)nc(-c3cccnc3)nc21` (stereo not shown) [Compound 87] showed an Emax [1] of 173% and an AC50 [2] of 10 µM.

`CCc1ccc(-c2nc(N(C)CCOc3ccc(CN)cc3)c3cnn(CC)c3n2)cc1` [Compound 124] was tested, and the AC50 [3] was 6.31 µM and the Emax [3] was 480%.

Work on `CN(C[C@@H]1COc2ccccc2O1)c1nc(-c2cccnc2)nc2ccccc12` [Compound 12] yielded an Emax [1] of 220% and an AC50 [2] of 2.67 µM.

Molecule `CN(CCC(=O)Nc1ccccc1)c1nc(-c2cccnc2)nc2c1cnn2C` [Compound 128] has an AC50 [3] of 44.7 µM and an Emax [3] of 275%.

`CN(CCOc1ccccc1)c1nc(-c2cccnc2)nc2c1ccn2C` [Compound 72] was tested, and the Emax [1] was 927% and the AC50 [2] was 6.31 µM.

Molecule `CCn1ncc2c(N3CCC[C@@H](Oc4ccccc4)C3)nc(-c3cccnc3)nc21` [Compound 164] has an AC50 [3] of 28.2 µM and an Emax [3] of 425%.

For `CCn1ncc2c(N3CC[C@H](Oc4ccccc4)C3)nc(-c3cccnc3)nc21` [Compound 156], the AC50 [3] was 39.8 µM and the Emax [3] was 220%.

Molecule `CCn1ncc2c(N(C)CCOc3ccc(CN)cc3)nc(-c3ccsc3)nc21` [Compound 137] has an AC50 [3] of 2 µM and an Emax [3] of 200%.

For `CN(CCOc1ccccc1)c1nc(-c2cccnc2)nc2ccc(C(F)(F)F)cc12` [Compound 45], the Emax [1] was 120% and the AC50 [2] was 5 µM.

With `CN(CCOc1cccc(C(=O)O)c1)c1nc(-c2cccnc2)nc2ccccc12` [Compound 80] the Emax [1] was 442% and the AC50 [2] was 15.8 µM.

For `CN(CC1CCc2ccccc2C1)c1nc(-c2cccnc2)nc2ccccc12` (stereo not shown) [Compound 75], the Emax [1] was 115% and the AC50 [2] was 2 µM.

For `CN(CCOc1ccccc1)c1nc(-c2cccnc2)nc2cccc(F)c12` [Compound 41], the Emax [1] was 180% and the AC50 [2] was 13.5 µM.

`CN(CCOC(C)(C)C)c1nc(-c2cccnc2)nc2ccccc12` [Compound 29] was tested, and the Emax [1] was 180% and the AC50 [2] was 39.8 µM.

`CN(CC1CCc2ccccc2O1)c1nc(-c2cccnc2)nc2c1cnn2C` (stereo not shown) [Compound 105] was tested, and the Emax [1] was 662% and the AC50 [2] was 6.31 µM.

For `CN(CCOc1ccc(C(=O)O)cc1)c1nc(-c2cccnc2)nc2ccccc12` [Compound 79], the Emax [1] was 252% and the AC50 [2] was 12.6 µM.

In the case of `COC(=O)Cc1cccc(OCCN(C)c2nc(-c3cccnc3)nc3ccccc23)c1` [Compound 95], the Emax [1] was 721% and the AC50 [2] was 4.47 µM.

For `CN(Cc1ccc2ncccc2c1)c1nc(-c2cccnc2)nc2c1cnn2C` [Compound 109], the Emax [1] was 475% and the AC50 [2] was 14.1 µM.

With `CCN1Cc2nc(-c3cccnc3)nc(N(C)CCOc3ccccc3)c2C1` [Compound 150] the AC50 [3] was 1.25 µM and the Emax [3] was 135%.

`CN(CCOc1ccccc1)c1cc(N2CCC(O)CC2)nc(Cl)n1` [Compound 167] was tested, and the AC50 [3] was 28.2 µM and the Emax [3] was 250%.

`CN(CCOc1ccccc1)c1nc(-c2cccnc2F)nc2ccccc12` [Compound 34] gave an Emax [1] of 160% and an AC50 [2] of 1.12 µM.

`CC(C)Cn1ncc2c(N(C)CCOc3ccccc3)nc(-c3cccnc3)nc21` [Compound 183] gave an AC50 [3] of 2.5 µM and an Emax [3] of 340%.

`CN(CCOc1ccccc1)c1cc(N2CC(O)C2)nc(-c2cccnc2)n1` [Compound 173] showed an AC50 [3] of 2.5 µM and an Emax [3] of 260%.

`Cc1noc(C)c1-c1nc(N(C)CCOc2ccccc2)c2ccccc2n1` [Compound 47] was tested, and the Emax [1] was 175% and the AC50 [2] was 2.21 µM.

Molecule `CCn1ncc2c(N(C)C[C@H]3COc4ccccc4O3)nc(-c3cccnc3)nc21` [Compound 106] has an Emax [1] of 250% and an AC50 [2] of 1.12 µM.

`CN(CCOc1ccccc1)c1nc(-c2cccnc2)nn2cccc12` [Compound 97] was tested, and the Emax [1] was 531% and the AC50 [2] was 3.16 µM.

Work on `Cc1nn(Cc2ccccc2)c(C)c1N(C)c1nc(-c2cccnc2)nc2ccccc12` [Compound 74] yielded an Emax [1] of 194% and an AC50 [2] of 10 µM.

For `CN(CCOc1ccccc1)c1cc(Cl)nc(-c2cccnc2)n1` [Compound 168], the AC50 [3] was 4 µM and the Emax [3] was 360%.

Work on `CCn1ncc2c(N3CC[C@@H](Oc4ccccc4)C3)nc(-c3cccnc3)nc21` [Compound 157] yielded an AC50 [3] of 22.4 µM and an Emax [3] of 580%.

`CN(CCOc1ccccc1)c1nc(-c2ccc(N)nc2)nc2ccccc12` [Compound 54] showed an Emax [1] of 170% and an AC50 [2] of 3.1 µM.

`CN(CCC(=O)Nc1ccccc1)c1nc(-c2cccnc2)nc2ccccc12` [Compound 127] showed an AC50 [3] of 35.5 µM and an Emax [3] of 325%.

Work on `COC(=O)c1ccc(OCCN(C)c2nc(-c3cccnc3)nc3ccccc23)cc1` [Compound 76] yielded an Emax [1] of 255% and an AC50 [2] of 4.47 µM.

`CCCCCC(=O)NCc1ccc(OCCN(C)c2nc(-c3cccnc3)nc3c2cnn3CC)cc1` [Compound 126] showed an AC50 [3] of 0.2 µM and an Emax [3] of 150%.

`CN(CCOc1cccc(CC(=O)ON2C(=O)CCC2=O)c1)c1nc(-c2cccnc2)nc2c1cnn2C` [Compound 96] gave an Emax [1] of 583% and an AC50 [2] of 7.94 µM.

— patent publication US12291533B2, “Substituted fused pyrimidine compounds and uses thereof” (Northwestern University, priority 2017, dated 2025)
